Results from ChEMBL document CHEMBL1201862, “PubChem BioAssay data set” (2004).
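Five compound concentrations were applied to cells in 96-well plates for 48 hours; endpoints were derived by simple linear interpolation of the resulting dose-response curve. Abbreviation: GI50, concentration required for 50% inhibition of growth.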 The source made the active and inactive calls. Cut-off read from the data, not from the text of the source: active = GI50 up to about 1.1 µM and inactive = higher.

Columns and labels:
Experiment in all cases: inhibition of tumour cell growth, NCI panel, 48 h
OVCAR-4 = test system: OVCAR-4
SK-MEL-5 = test system: SK-MEL-5
NCI-H226 = test system: NCI-H226
CCRF-CEM = test system: CCRF-CEM
HT-29 = test system: HT-29
IGROV-1 = test system: IGROV-1
OVCAR-5 = test system: OVCAR-5
PC-3 = test system: PC-3
COLO 205 = test system: COLO 205
SF-295 = test system: SF-295
MDA-MB-435 = test system: MDA-MB-435
HL-60 = test system: HL-60
RXF 393 = test system: RXF 393
SK-OV-3 = test system: SK-OV-3
MOLT-4 = test system: MOLT-4
BT-549 = test system: BT-549
786-0 = test system: 786-0
ACHN = test system: ACHN
NCI-H522 = test system: NCI-H522
HCC 2998 = test system: HCC 2998
NCI-H460 = test system: NCI-H460
A549 = test system: A549
SK-MEL-28 = test system: SK-MEL-28
Hs-578T = test system: Hs-578T
A498 = test system: A498
HOP-92 = test system: HOP-92
SNB-19 = test system: SNB-19
UACC-257 = test system: UACC-257
TK-10 = test system: TK-10
RPMI-8226 = test system: RPMI-8226
SW-620 = test system: SW-620
HOP-62 = test system: HOP-62
HCT-15 = test system: HCT-15
M14 = test system: M14
KM12 = test system: KM12
UO-31 = test system: UO-31
HCT-116 = test system: HCT-116
SK-MEL-2 = test system: SK-MEL-2
MCF7 = test system: MCF7
OVCAR-3 = test system: OVCAR-3
EKVX = test system: EKVX
SF-268 = test system: SF-268
T47D = test system: T47D
NCI-H23 = test system: NCI-H23
DU-145 = test system: DU-145
CAKI-1 = test system: CAKI-1
MDA-MB-231 = test system: MDA-MB-231
Malme-3M = test system: Malme-3M
SNB-75 = test system: SNB-75
SR = test system: SR
U-251 = test system: U-251
UACC-62 = test system: UACC-62
SN12C = test system: SN12C
OVCAR-8 = test system: OVCAR-8
MDA-N = test system: MDA-N
NCI/ADR-RES = test system: NCI/ADR-RES

COc1ccc(/C=N/n2cnc3[nH]c(C)c(Cc4ccccc4)c3c2=N)cc1
GI50 (OVCAR-4): > 100 µM (inactive)
GI50 (SK-MEL-5): > 100 µM (inactive)
GI50 (NCI-H226): > 100 µM (inactive)
GI50 (CCRF-CEM): 54.3 µM (inactive)
GI50 (HT-29): > 100 µM (inactive)
GI50 (IGROV-1): 39.7 µM (inactive)
GI50 (OVCAR-5): > 100 µM (inactive)
GI50 (PC-3): > 100 µM (inactive)
GI50 (COLO 205): 75.9 µM (inactive)
GI50 (SF-295): 53.3 µM (inactive)
GI50 (MDA-MB-435): > 100 µM (inactive)
GI50 (HL-60): > 100 µM (inactive)
GI50 (RXF 393): 19.2 µM (inactive)
GI50 (SK-OV-3): > 100 µM (inactive)
GI50 (MOLT-4): 52.1 µM (inactive)
GI50 (BT-549): 75 µM (inactive)
GI50 (786-0): > 100 µM (inactive)
GI50 (ACHN): 97.1 µM (inactive)
GI50 (NCI-H522): 65 µM (inactive)
GI50 (HCC 2998): > 100 µM (inactive)
GI50 (NCI-H460): 81.7 µM (inactive)
GI50 (A549): 89.5 µM (inactive)
GI50 (SK-MEL-28): > 100 µM (inactive)
GI50 (Hs-578T): 80.9 µM (inactive)
GI50 (A498): 67.8 µM (inactive)
GI50 (HOP-92): 29.2 µM (inactive)
GI50 (SNB-19): > 100 µM (inactive)
GI50 (UACC-257): > 100 µM (inactive)
GI50 (TK-10): > 100 µM (inactive)
GI50 (RPMI-8226): 34.8 µM (inactive)
GI50 (SW-620): 57.1 µM (inactive)
GI50 (HOP-62): > 100 µM (inactive)
GI50 (HCT-15): > 100 µM
GI50 (M14): > 100 µM (inactive)
GI50 (KM12): > 100 µM (inactive)
GI50 (UO-31): > 100 µM (inactive)
GI50 (HCT-116): > 100 µM (inactive)
GI50 (SK-MEL-2): > 100 µM (inactive)
GI50 (MCF7): 39.1 µM (inactive)
GI50 (OVCAR-3): > 100 µM (inactive)
GI50 (EKVX): > 100 µM (inactive)
GI50 (SF-268): 72.9 µM (inactive)
GI50 (T47D): 30.1 µM (inactive)
GI50 (NCI-H23): 53.1 µM (inactive)
GI50 (DU-145): > 100 µM (inactive)
GI50 (CAKI-1): > 100 µM (inactive)
GI50 (MDA-MB-231): 68.4 µM (inactive)
GI50 (Malme-3M): > 100 µM (inactive)
GI50 (SNB-75): 71.9 µM (inactive)
GI50 (SR): > 100 µM (inactive)
GI50 (U-251): 86.1 µM (inactive)
GI50 (UACC-62): > 100 µM (inactive)
GI50 (SN12C): 92 µM (inactive)
GI50 (OVCAR-8): 90.6 µM (inactive)
GI50 (MDA-N): > 100 µM (inactive)
GI50 (NCI/ADR-RES): > 100 µM (inactive)
